{"source": "patent US20090311217A1", "about": "“3-SUBSTITUTED-1H-INDOLE COMPOUNDS, THEIR USE AS MTOR KINASE AND PI3 KINASE INHIBITORS, AND THEIR SYNTHESES” (priority 2008, published 2009)", "key": {"PI3K-gamma": {"molecular_target": "PI3K-gamma (Homo sapiens, UniProt P48736)", "sequence (P48736 whole entry, species assumed, the tested form may be a part)": "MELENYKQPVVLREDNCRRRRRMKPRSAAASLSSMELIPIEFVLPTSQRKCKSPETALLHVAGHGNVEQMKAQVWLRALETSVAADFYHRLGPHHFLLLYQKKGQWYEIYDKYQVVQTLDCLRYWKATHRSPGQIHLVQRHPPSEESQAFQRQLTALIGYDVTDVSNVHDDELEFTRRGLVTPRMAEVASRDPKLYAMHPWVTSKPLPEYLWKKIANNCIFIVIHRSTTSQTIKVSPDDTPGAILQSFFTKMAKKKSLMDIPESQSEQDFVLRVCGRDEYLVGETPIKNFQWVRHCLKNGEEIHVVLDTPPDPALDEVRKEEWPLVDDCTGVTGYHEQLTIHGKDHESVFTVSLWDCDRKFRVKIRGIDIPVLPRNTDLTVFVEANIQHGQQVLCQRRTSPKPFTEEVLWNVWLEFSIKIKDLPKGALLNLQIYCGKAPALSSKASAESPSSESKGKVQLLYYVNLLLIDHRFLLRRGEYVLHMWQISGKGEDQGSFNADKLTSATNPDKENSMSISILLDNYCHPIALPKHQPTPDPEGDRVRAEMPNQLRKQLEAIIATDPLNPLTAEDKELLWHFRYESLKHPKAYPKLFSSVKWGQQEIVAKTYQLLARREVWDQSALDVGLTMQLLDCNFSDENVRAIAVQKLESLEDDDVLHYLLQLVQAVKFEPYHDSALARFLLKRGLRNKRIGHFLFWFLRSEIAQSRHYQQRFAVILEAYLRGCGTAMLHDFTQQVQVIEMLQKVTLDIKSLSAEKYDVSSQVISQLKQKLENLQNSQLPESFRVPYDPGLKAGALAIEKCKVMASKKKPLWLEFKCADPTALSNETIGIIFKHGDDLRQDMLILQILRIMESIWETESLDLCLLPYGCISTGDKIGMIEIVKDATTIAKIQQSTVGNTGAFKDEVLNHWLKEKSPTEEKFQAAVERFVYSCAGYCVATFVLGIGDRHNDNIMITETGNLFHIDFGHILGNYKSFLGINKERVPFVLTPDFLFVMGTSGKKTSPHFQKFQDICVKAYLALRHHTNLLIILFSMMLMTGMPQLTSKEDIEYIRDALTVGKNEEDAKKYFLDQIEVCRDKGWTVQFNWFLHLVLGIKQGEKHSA", "experiment": "PI3K-gamma fluorescence polarization assay", "type": "biochemical", "details": "PI3Kγ Avg. IC50", "summary_of_the_method": "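Reactions in 5 mM HEPES pH 7, 2.5 mM MgCl2, 25 μM ATP with 2.5 μM diC8-PI(4,5)P2 and 5 ng enzyme, 1 h at 25° C, then EDTA quench. Product detected by FP using GST-GRP1 PH domain (100 nM) and BODIPY-TMR-IP4 tracer (5 nM); final DMSO 0.8%.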"}, "PI3K-alpha": {"molecular_target": "PI3K-alpha (Homo sapiens, UniProt P42336)", "sequence (P42336 whole entry, species assumed)": "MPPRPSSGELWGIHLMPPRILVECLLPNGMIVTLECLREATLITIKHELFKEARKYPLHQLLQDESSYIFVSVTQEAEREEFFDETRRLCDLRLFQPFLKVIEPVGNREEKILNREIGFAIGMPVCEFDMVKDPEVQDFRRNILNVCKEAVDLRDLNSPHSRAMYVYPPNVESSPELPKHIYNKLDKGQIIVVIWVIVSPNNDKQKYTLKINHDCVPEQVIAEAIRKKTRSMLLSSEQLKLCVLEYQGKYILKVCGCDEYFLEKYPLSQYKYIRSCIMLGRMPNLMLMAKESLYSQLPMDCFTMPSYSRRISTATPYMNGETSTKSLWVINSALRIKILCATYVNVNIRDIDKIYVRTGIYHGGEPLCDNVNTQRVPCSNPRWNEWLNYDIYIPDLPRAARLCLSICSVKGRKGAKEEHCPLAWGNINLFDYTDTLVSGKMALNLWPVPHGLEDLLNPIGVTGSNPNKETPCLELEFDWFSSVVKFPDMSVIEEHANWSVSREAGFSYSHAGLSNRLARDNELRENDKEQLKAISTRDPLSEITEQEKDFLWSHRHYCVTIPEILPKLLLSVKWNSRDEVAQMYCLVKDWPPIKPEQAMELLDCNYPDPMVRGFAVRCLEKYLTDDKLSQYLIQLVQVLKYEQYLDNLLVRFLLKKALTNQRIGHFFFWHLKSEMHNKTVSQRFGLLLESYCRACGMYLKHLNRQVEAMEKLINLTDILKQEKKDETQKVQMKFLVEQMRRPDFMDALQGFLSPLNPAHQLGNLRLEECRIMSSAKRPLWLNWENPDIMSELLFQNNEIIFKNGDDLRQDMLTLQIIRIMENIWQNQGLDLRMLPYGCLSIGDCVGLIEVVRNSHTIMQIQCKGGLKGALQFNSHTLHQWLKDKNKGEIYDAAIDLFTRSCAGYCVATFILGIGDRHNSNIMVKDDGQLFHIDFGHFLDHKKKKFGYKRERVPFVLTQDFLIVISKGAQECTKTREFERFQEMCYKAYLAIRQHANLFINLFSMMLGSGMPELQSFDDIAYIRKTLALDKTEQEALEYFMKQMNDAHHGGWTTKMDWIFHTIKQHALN", "sequence (P27986 whole entry partner, species assumed)": "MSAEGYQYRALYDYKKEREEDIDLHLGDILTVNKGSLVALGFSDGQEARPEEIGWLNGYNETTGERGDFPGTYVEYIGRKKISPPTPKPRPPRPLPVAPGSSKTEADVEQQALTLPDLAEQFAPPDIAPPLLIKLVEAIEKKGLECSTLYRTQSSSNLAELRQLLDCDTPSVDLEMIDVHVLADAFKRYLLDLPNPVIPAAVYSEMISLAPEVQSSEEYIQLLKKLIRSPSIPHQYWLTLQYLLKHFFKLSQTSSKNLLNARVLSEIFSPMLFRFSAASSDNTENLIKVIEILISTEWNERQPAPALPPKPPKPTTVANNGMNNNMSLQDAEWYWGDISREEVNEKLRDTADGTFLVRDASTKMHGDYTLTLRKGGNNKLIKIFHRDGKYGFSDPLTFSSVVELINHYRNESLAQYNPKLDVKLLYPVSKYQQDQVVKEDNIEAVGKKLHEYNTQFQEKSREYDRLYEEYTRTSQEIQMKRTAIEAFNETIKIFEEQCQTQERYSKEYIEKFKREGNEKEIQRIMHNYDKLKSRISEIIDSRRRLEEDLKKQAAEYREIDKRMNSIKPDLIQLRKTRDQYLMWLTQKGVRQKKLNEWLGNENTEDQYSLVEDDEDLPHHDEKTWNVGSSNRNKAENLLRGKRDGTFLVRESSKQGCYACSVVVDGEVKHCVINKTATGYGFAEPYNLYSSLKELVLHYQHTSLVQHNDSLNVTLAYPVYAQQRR", "experiment": "PI3K-alpha fluorescence polarization assay", "type": "biochemical", "details": "read-out: PI3Kα Avg. IC50"}}}
{"smiles": "CNC(=O)Nc1ccc2c(c1)C(=O)/C(=C/c1c[nH]c3c(CN4CCN(C)CC4)cc(OC)cc13)O2", "note": "[Compound 571, 1-[(2Z)-2-({5-methoxy-7-[(4-methylpiperazin-1-yl)methyl]-1H-indol-3-yl}methylene)-3-oxo-2,3-dihydro-1-benzofuran-5-yl]-3-methylurea]", "values": [{"measurement": "IC50", "setting": "PI3K-gamma", "result": 6440, "unit": "nM"}, {"measurement": "IC50", "setting": "PI3K-alpha", "result": 612, "unit": "nM"}]}
{"smiles": "COc1cc(-c2cncnc2)c2[nH]cc(/C=C3\\Oc4cc(O)ccc4C3=O)c2c1", "note": "[Compound 498, (2Z)-6-hydroxy-2-[(5-methoxy-7-pyrimidin-5-yl-1H-indol-3-yl)methylene]-1-benzofuran-3(2H)-one]", "values": [{"measurement": "IC50", "setting": "PI3K-gamma", "result": 392, "unit": "nM"}, {"measurement": "IC50", "setting": "PI3K-alpha", "result": 63.5, "unit": "nM"}]}
{"smiles": "CNC(=O)Nc1ccc2c(c1)C(=O)/C(=C/c1c(-c3ccncc3)n(CCN3CCN(C)CC3)c3ccc(OC)cc13)O2", "note": "[Compound 590, 1-[(2Z)-2-({5-methoxy-1-[2-(4-methylpiperazin-1-yl)ethyl]-2-pyridin-4-yl-1Hindol-3-yl}methylene)-3-oxo-2,3-dihydro-1-benzofuran-5-yl]-3-methylurea]", "values": [{"measurement": "IC50", "setting": "PI3K-gamma", "result": 1020, "unit": "nM"}, {"measurement": "IC50", "setting": "PI3K-alpha", "result": 3.67, "unit": "nM"}]}
{"smiles": "COc1ccc2c(c1)c(/C=C1\\Oc3ccc(NC(=O)NCCCN)cc3C1=O)cn2CCN1CCN(C)CC1", "note": "[Compound 566, 1-(3-aminopropyl)-3-[(2Z)-2-({5-methoxy-1-[2-(4-methylpiperazin-1-yl)ethyl]-1Hindol-3-yl}methylene)-3-oxo-2,3-dihydro-1-benzofuran-5-yl]urea]", "values": [{"measurement": "IC50", "setting": "PI3K-gamma", "result": 7790, "unit": "nM"}, {"measurement": "IC50", "setting": "PI3K-alpha", "result": 93.5, "unit": "nM"}]}
{"smiles": "COc1ccc2[nH]cc(/C=C3\\Oc4cc(C#N)ccc4C3=O)c2c1", "note": "[Compound 508, (2Z)-2-[(5-methoxy-1H-indol-3-yl)methylene]-3-oxo-2,3-dihydro-1-benzofuran-6-carbonitrile]", "values": [{"measurement": "IC50", "setting": "PI3K-gamma", "result": "> 10000", "unit": "nM"}, {"measurement": "IC50", "setting": "PI3K-alpha", "result": 8500, "unit": "nM"}]}
{"smiles": "COc1ccc2[nH]cc(/C=C3\\Oc4ccc(Br)cc4C3=O)c2c1", "note": "[Compound 522, (2Z)-5-bromo-2-[(5-methoxy-1H-indol-3-yl)methylene]-1-benzofuran-3(2H)-one]", "values": [{"measurement": "IC50", "setting": "PI3K-gamma", "result": "> 10000", "unit": "nM"}, {"measurement": "IC50", "setting": "PI3K-alpha", "result": "> 10000", "unit": "nM"}]}
{"smiles": "CNC(=O)Nc1ccc2c(c1)C(=O)/C(=C/c1c(C)n(CCCN3CCOCC3)c3ccc(OC)cc13)O2", "note": "[Compound 585, 1-[(2Z)-2-{[5-methoxy-2-methyl-1-(3-morpholin-4-ylpropyl)-1H-indol-3-yl]methylene}-3-oxo-2,3-dihydro-1-benzofuran-5-yl]-3-methylurea]", "values": [{"measurement": "IC50", "setting": "PI3K-gamma", "result": 138, "unit": "nM"}, {"measurement": "IC50", "setting": "PI3K-alpha", "result": 11, "unit": "nM"}]}
{"smiles": "COc1ccc2c(c1)c(/C=C1\\Oc3ccc(NC(N)=O)cc3C1=O)cn2CCCN(C)C", "note": "[Compound 537, 1-[(2Z)-2-({1-[3-(dimethylamino)propyl]-5-methoxy-1H-indol-3-yl}methylene)-3-oxo-2,3-dihydro-1-benzofuran-5-yl]urea]", "values": [{"measurement": "IC50", "setting": "PI3K-gamma", "result": "> 10000", "unit": "nM"}, {"measurement": "IC50", "setting": "PI3K-alpha", "result": 421, "unit": "nM"}]}
{"smiles": "COc1cc(-c2ccncc2)c2[nH]cc(/C=C3\\Oc4cc(O)ccc4C3=O)c2c1", "note": "[Compound 479, (2Z)-6-hydroxy-2-[(5-methoxy-7-pyridin-4-yl-1H-indol-3-yl)methylene]-1-benzofuran-3(2H)-one]", "values": [{"measurement": "IC50", "setting": "PI3K-gamma", "result": "> 10000", "unit": "nM"}, {"measurement": "IC50", "setting": "PI3K-alpha", "result": 298, "unit": "nM"}]}
{"smiles": "COc1ccc2c(c1)c(/C=C1\\Oc3ccc(NC(N)=O)cc3C1=O)cn2CCN1CCN(C)CC1", "note": "[Compound 551, 1-[(2Z)-2-({5-methoxy-1-[2-(4-methylpiperazin-1-yl)ethyl]-1H-indol-3-yl}methylene)-3-oxo-2,3-dihydro-1-benzofuran-5-yl]urea]", "values": [{"measurement": "IC50", "setting": "PI3K-gamma", "result": 3150, "unit": "nM"}, {"measurement": "IC50", "setting": "PI3K-alpha", "result": 192, "unit": "nM"}]}
{"smiles": "COc1ccc2c(c1)c(/C=C1\\Oc3ccc(NC(=O)NCCCCN)cc3C1=O)cn2CCN1CCN(C)CC1", "note": "[Compound 565, 1-(4-aminobutyl)-3-[(2Z)-2-({5-methoxy-1-[2-(4-methylpiperazin-1-yl)ethyl]-1Hindol-3-yl}methylene)-3-oxo-2,3-dihydro-1-benzofuran-5-yl]urea]", "values": [{"measurement": "IC50", "setting": "PI3K-gamma", "result": "> 10000", "unit": "nM"}, {"measurement": "IC50", "setting": "PI3K-alpha", "result": 114, "unit": "nM"}]}
{"smiles": "CNC(=O)Nc1ccc2c(c1)C(=O)/C(=C/c1c(C)n(CCN3CCOCC3)c3ccc(OC)cc13)O2", "note": "[Compound 608, 1-[(2Z)-2-{[5-methoxy-2-methyl-1-(2-morpholin-4-ylethyl)-1H-indol-3-yl]methylidene}-3-oxo-2,3-dihydro-1-benzofuran-5-yl]-3-methylurea]", "values": [{"measurement": "IC50", "setting": "PI3K-gamma", "result": 136, "unit": "nM"}, {"measurement": "IC50", "setting": "PI3K-alpha", "result": 15.5, "unit": "nM"}]}
